Measurements reported in patent US10800789B2, “Antiviral compounds” (Gilead Pharmasset LLC, priority 2012, dated 2020).
pEC50: −log10 of the molar value. Where two headings read alike, the source gives them in different places.

How the values were obtained:
[1] = test system: Q30R in genotype 1a NS5A (1a Pi-Rluc replicon, Huh-7-derived cured-51 cells); assay: Replicon assay against resistance mutant 1a Q30R; type: cell-based, HCV; settings: Hepatitis C virus; for pEC50: read-out: 1a Q30R; for EC50: read-out: 1a Q30R (nM)
Experimental: Antiviral potency (EC50) was determined using a Renilla luciferase (RLuc)-based HCV replicon reporter assay. To perform the assay for genotype 1 and 2a JFH-1, stable HCV 1a RLuc replicon cells (harboring a dicistronic genotype 1a H77 replicon that encodes a RLuc reporter), stable HCV 1b RLuc replicon cells (harboring a dicistronic genotype 1b Con1 replicon that encodes a RLuc reporter), or stable HCV 2a JFH-1 Rluc replicon cells (harboring a dicistronic genotype 2a JFH-1 replicon that encodes a RLuc reporter; with L31 present in NS5A) were dispensed into 384-well plates for EC50 assays. To perform the assay for genotype 2a (with M31 present in NS5A) or 2b, NS5A chimeric genotype 2a JFH-1 replicons that encodes a RLuc-Neo reporter and either genotype 2a J6 strain NS5A gene or genotype 2b MD2b-1 strain NS5A gene (both with M31 present) respectively, were either transiently transfected (t) into Huh-Lunet cells or were established as stably replicating replicon cells (s) is provided. Either cells were dispensed into 384-well plates for EC50 assays. To perform the assay for genotype 3 and 4, NS5A chimeric genotype 1b Con1 replicons that encodes a Pi-RLuc reporter and either genotype 3a S52 strain NS5A gene or genotype 4a ED43 strain NS5A gene respectively, were transiently transfected (t) into Huh-Lunet cells, which were subsequently dispensed into 384-well plates. Compounds were dissolved in DMSO at a concentration of 10 mM and diluted in DMSO either manually or using an automated pipeting instrument. Serially 3-fold diluted compounds were either manually mixed with cell culture media and added to the seeded cells or directly added to the cells using an automated instrument. DMSO was used as a negative (solvent; no inhibition) control, and the protease inhibitor ITMN-191 was included at a concentration>100×EC50 as a positive control. 72 hours later, cells were lysed and Renilla luciferase activity quantified as recommended by the manufacturer (Promega-Madison, Wis.). Non-linear regression was performed to calculate EC50 values.
To determine the antiviral potency (EC50) against resistance mutants, resistance mutations, including M28T, Q30R, Q30H, Q30E, L31M, Y93C, Y93H, and Y93N in genotype 1a NS5A, Y93H and L31V/Y93H in genotype 1b NS5A, and Y93H for in genotype 3a NS5A, were introduced individually into either 1a Pi-Rluc or 1b Pi-Rluc replicons by site directed mutagenesis. Replicon RNA of each resistant mutant was transiently transfected into Huh-7-derived cured-51 cells and antiviral potency was determined on these transfected cells as described above.

[2] = test system: stable HCV 1a RLuc replicon cells (dicistronic genotype 1a H77 replicon); assay: Renilla luciferase HCV replicon reporter assay, genotype 1a; type: cell-based; settings: Hepatitis C virus, 72 h, stable 1a H77 RLuc replicon cells
Procedure, shortened: (§1)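 Antiviral EC50 was determined in HCV replicon cells (stable RLuc lines for 1a H77, 1b Con1, 2a JFH-1 with NS5A L31; J6 NS5A chimera with M31) treated 72 h with compound. Renilla luciferase was then quantified.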

[3] = test system: stable HCV 2a JFH-1 Rluc replicon cells (L31 present in NS5A); assay: Renilla luciferase HCV replicon reporter assay, genotype 2a JFH-1; type: cell-based; settings: Hepatitis C virus; for EC50: read-out: 2a JFH (nM), genotype 2a JFH-1 replicon (L31 in NS5A), stable cells; for pEC50: read-out: 2a JFH, stable 2a JFH-1 Rluc replicon cells, L31 in NS5A, activity range
Procedure, shortened: as §1

[4] = test system: stable HCV 1b RLuc replicon cells (dicistronic genotype 1b Con1 replicon); assay: Renilla luciferase HCV replicon reporter assay, genotype 1b; type: cell-based; settings: Hepatitis C virus, 72 h, stable 1b Con1 RLuc replicon cells, 72 hours; read-out: 1b
Procedure, shortened: as §1

[5] = test system: NS5A chimeric genotype 2a JFH-1 replicon with genotype 2a J6 strain NS5A gene (M31 present); assay: Replicon assay, genotype 2a J6 NS5A chimera; type: cell-based, HCV; settings: Hepatitis C virus; for EC50: read-out: 2a J6 (t) (nM), genotype 2a J6 NS5A chimeric replicon (M31), transiently transfected (t) into Huh-Lunet cells; for pEC50: read-out: 2a J6 (t), transiently transfected (t) into Huh-Lunet cells, activity range
Procedure, shortened: (§2)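 Cells carrying the stable or transiently transfected (Huh-Lunet) dicistronic RLuc replicons received 3-fold serial compound dilutions from 10 mM DMSO stocks. After 72 h, cells were lysed and Renilla luciferase read. DMSO served as the no-inhibition control and ITMN-191 above 100×EC50 as the positive control; EC50 by non-linear regression.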

[6] = test system: NS5A chimeric genotype 1b Con1 replicon with genotype 3a S52 strain NS5A gene; assay: Replicon assay, genotype 3a NS5A chimera; type: cell-based, HCV; settings: Hepatitis C virus; for pEC50: activity range
[7] = test system: NS5A chimeric genotype 1b Con1 replicon with genotype 4a ED43 strain NS5A gene; assay: Replicon assay, genotype 4a NS5A chimera; type: cell-based, HCV; settings: Hepatitis C virus; for EC50: read-out: 4a (s) (nM), genotype 4a NS5A chimeric replicon, stable replicon cells (s); for pEC50: read-out: 4a (s), (s), activity range
[8] = test system: NS5A chimeric genotype 2a JFH-1 replicon with genotype 2b MD2b-1 strain NS5A gene (M31 present); assay: Replicon assay, genotype 2b NS5A chimera; type: cell-based, HCV; settings: Hepatitis C virus; for pEC50: activity range
Procedure, shortened: as §2

[9] = read-out: 3a (s) (nM), genotype 3a NS5A chimeric replicon, stable replicon cells (s)
[10] = 2BS, read-out: 2b (s), stably replicating replicon cells (s)
[11] = read-out: 2b (s) (nM), genotype 2b MD2b-1 NS5A chimeric replicon (M31), stably replicating replicon cells (s)
[12] = read-out: 3a (t) (nM), genotype 3a NS5A chimeric replicon, transiently transfected (t)
[13] = read-out: 3a (t), transiently transfected (t) into Huh-Lunet cells

| Compound | pEC50 [1] | EC50 [1] | pEC50 [2] | pEC50 ([2]; activity range) | EC50 [3] | pEC50 [3] | pEC50 [4] | EC50 [5] | pEC50 [5] | EC50 [6, 9] | pEC50 ([6]; read-out: 3a (s), (s)) | EC50 [7] | pEC50 [7] | pEC50 [8, 10] | EC50 [8, 11] | EC50 [6, 12] | pEC50 [6, 13] | EC50 ([8]; read-out: 2b (t) (nM), genotype 2b MD2b-1 NS5A chimeric replicon (M31), transiently transfected (t)) | pEC50 ([8]; read-out: 2b (t), transiently transfected (t) into Huh-Lunet cells) |
| --- | --- | --- | --- | --- | --- | --- | --- | --- | --- | --- | --- | --- | --- | --- | --- | --- | --- | --- | --- |
| COC[C@H](NC(=O)OC)C(=O)N1[C@@H](C)CC[C@H]1c1nc2ccc3cc4c(cc3c2[nH]1)OCc1cc(-c2cnc([C@@H]3CC[C@H](C)N3C(=O)[C@@H](NC(=O)OC)C(C)C)[nH]2)ccc1-4 [FE, Methyl [(2S)-1-{(2S,5S)-2-[5-(2-{(2S,5S)-1-[N-(methoxycarbonyl)-O-methyl-L-seryl]-5-methylpyrrolidin-2-yl}-1,11-dihydroisochromeno[4′,3′:6,7]naphtho[1,2-d]imidazol-9-yl)-1H-imidazol-2-yl]-5-methylpyrrolidin-1-yl}-3-methyl-1-oxobutan-2-yl]carbamate] | 9.00 to 10.00 | 0.253 nM | 10.92 | > 10.00 | 0.016 nM | > 10.00 | 10.82 | 0.122 nM | 9.00 to 10.00 | 0.072 nM | > 10.00 | 0.012 nM | > 10.00 | 9.00 to 10.00 | 0.463 nM |  |  |  |  |
| COC(=O)N[C@H](C(=O)N1[C@@H](C)CC[C@H]1c1ncc(-c2ccc3c(c2)COc2cc4c(ccc5nc([C@@H]6CC[C@H](C)N6C(=O)[C@@H](NC(=O)OC)[C@@H](C)OC(C)(C)C)[nH]c54)cc2-3)[nH]1)C(C)C [FG, Methyl {(2S,3R)-3-tert-butoxy-1-[(2S,5S)-2-(9-{2-[(2S,5S)-1-{(2S)-2-[(methoxycarbonyl)amino]-3-methylbutanoyl}-5-methylpyrrolidin-2-yl]-1H-imidazol-5-yl}-1,11-dihydroisochromeno[4′,3′:6,7]naphtho[1,2-d]imidazol-2-yl)-5-methylpyrrolidin-1-yl]-1-oxobutan-2-yl}carbamate] | 9.00 to 10.00 | 0.577 nM | 10.62 | > 10.00 | 0.047 nM | > 10.00 | 10.40 | 1.45 nM | 7.36 to 9.00 | 0.298 nM | 9.00 to 10.00 | 0.044 nM | > 10.00 | 7.36 to 9.00 | 1.53 nM |  |  |  |  |
| COC(=O)N[C@H](C(=O)N1[C@@H](C)CC[C@H]1c1ncc(-c2ccc3c(c2)COc2cc4c(ccc5nc([C@@H]6CC[C@H](C)N6C(=O)[C@@H](NC(=O)OC)[C@H](C)OC)[nH]c54)cc2-3)[nH]1)C(C)C [FK, Methyl [(2S)-1-{(2S,5S)-2-[5-(2-{(2S,5S)-1-[N-(methoxycarbonyl)-O-methyl-L-allothreonyl]-5-methylpyrrolidin-2-yl}-1,11-dihydroisochromeno[4′,3′:6,7]naphtho[1,2-d]imidazol-9-yl)-1H-imidazol-2-yl]-5-methylpyrrolidin-1-yl}-3-methyl-1-oxobutan-2-yl]carbamate] | 9.00 to 10.00 | 0.498 nM | 10.62 | > 10.00 | 0.038 nM | > 10.00 | 10.43 | 0.4 nM | 9.00 to 10.00 | 0.137 nM | 9.00 to 10.00 | 0.018 nM | > 10.00 | 9.00 to 10.00 | 0.476 nM |  |  |  |  |
| COC(=O)N[C@H](C(=O)N1[C@@H](C)CC[C@H]1c1nc(Cl)c(-c2ccc3c(c2)COc2cc4c(ccc5nc([C@@H]6CC[C@H](C)N6C(=O)[C@@H](NC(=O)OC)[C@@H](C)OC)[nH]c54)cc2-3)[nH]1)[C@@H](C)OC [GB, Methyl [(2S,3R)-1-{(2S,5S)-2-[9-(4-chloro-2-{(2S,5S)-1-[N-(methoxycarbonyl)-O-methyl-L-threonyl]-5-methylpyrrolidin-2-yl}-1H-imidazol-5-yl)-1,11-dihydroisochromeno[4′,3′:6,7]naphtho[1,2-d]imidazol-2-yl]-5-methylpyrrolidin-1-yl}-3-methoxy-1-oxobutan-2-yl]carbamate] | > 10.00 | 0.075 nM | 10.80 | > 10.00 | 0.011 nM | > 10.00 | 10.72 | 0.023 nM | > 10.00 | 0.029 nM | > 10.00 | 0.007 nM | > 10.00 | > 10.00 | 0.089 nM | 0.034 nM | > 10.00 |  |  |
| COC(=O)N[C@H](C(=O)N1[C@@H](C)CC[C@H]1c1nc(C)c(-c2ccc3c(c2)COc2cc4c(ccc5nc([C@@H]6CC[C@H](C)N6C(=O)[C@@H](NC(=O)OC)[C@@H](C)OC)[nH]c54)cc2-3)[nH]1)[C@@H](C)OC [GD, Methyl [(2S,3R)-3-methoxy-1-{(2S,5S)-2-[9-(2-{(2S,5S)-1-[N-(methoxycarbonyl)-O-methyl-L-threonyl]-5-methylpyrrolidin-2-yl}-4-methyl-1H-imidazol-5-yl)-1,11-dihydroisochromeno[4′,3′:6,7]naphtho[1,2-d]imidazol-2-yl]-5-methylpyrrolidin-1-yl}-1-oxobutan-2-yl]carbamate] | 9.00 to 10.00 | 0.105 nM | 10.72 | > 10.00 | 0.035 nM | > 10.00 | 10.57 | 0.04 nM | > 10.00 | 0.07 nM | > 10.00 | 0.018 nM | > 10.00 | > 10.00 | 0.09 nM | 0.042 nM | > 10.00 |  |  |
| COC[C@H]1C[C@@H](c2ncc(-c3ccc4c(c3)c(=O)oc3cc5c(ccc6nc([C@@H]7CC[C@H](C)N7C(=O)[C@@H](NC(=O)OC)C(C)C)[nH]c65)cc34)[nH]2)N(C(=O)[C@H](NC(=O)OC)c2ccccc2)C1 [GK, methyl {(1R)-2-[(2S,4S)-2-(5-{2-[(2S,5S)-1-{(2S)-2-[(methoxycarbonyl)amino]-3-methylbutanoyl}-5-methylpyrrolidin-2-yl]-11-oxo-1,11-dihydroisochromeno[4′,3′:6,7]naphtho[1,2-d]imidazol-9-yl}-1H-imidazol-2-yl)-4-(methoxymethyl)pyrrolidin-1-yl]-2-oxo-1-phenylethyl}carbamate] | 9.00 to 10.00 | 0.111 nM | 10.51 | > 10.00 | 0.024 nM | > 10.00 | 10.44 | 0.071 nM | > 10.00 | 0.156 nM | 9.00 to 10.00 | 0.028 nM | > 10.00 | 9.00 to 10.00 | 0.187 nM |  |  | 0.087 nM | > 10.00 |
